In patent US20230301981A1, “TLR7/8 ANTAGONISTS AND USES THEREOF” (Merck Patent GmbH, priority 2020, published 2023):

Molecular target: T1, TLR⅞ (Mus musculus, UniProt P58681)
T1 sequence (P58681 27-1050): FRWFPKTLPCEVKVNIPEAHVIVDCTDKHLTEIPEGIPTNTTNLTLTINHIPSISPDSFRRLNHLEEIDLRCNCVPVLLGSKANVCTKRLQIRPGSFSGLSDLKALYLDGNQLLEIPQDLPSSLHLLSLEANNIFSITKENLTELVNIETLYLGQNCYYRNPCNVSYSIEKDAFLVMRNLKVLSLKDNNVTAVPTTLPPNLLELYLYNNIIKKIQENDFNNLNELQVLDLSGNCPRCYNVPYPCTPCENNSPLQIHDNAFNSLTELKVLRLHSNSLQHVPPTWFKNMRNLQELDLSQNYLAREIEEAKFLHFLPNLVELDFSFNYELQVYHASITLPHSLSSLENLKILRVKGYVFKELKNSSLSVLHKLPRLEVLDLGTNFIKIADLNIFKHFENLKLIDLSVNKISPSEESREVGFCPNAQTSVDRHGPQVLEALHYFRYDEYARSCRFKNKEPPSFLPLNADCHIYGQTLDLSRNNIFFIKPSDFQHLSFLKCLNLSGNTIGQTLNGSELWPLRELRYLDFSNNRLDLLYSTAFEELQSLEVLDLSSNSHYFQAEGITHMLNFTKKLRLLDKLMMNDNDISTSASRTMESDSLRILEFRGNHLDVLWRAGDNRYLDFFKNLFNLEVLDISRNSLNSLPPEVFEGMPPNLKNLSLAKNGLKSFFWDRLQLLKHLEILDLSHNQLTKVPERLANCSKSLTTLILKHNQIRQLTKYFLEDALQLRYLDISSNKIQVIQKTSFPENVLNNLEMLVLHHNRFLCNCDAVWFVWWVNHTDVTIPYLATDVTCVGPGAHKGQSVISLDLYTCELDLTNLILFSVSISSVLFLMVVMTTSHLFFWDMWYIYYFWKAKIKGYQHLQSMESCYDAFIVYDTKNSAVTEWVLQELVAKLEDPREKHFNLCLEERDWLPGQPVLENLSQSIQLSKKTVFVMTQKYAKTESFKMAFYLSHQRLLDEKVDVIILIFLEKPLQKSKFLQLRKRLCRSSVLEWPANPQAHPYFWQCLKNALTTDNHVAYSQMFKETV
Assay: Mouse spleenocytes cell assay with R848 stimulation (IL6/TNFa ELISA)
Format: cell-based
Conditions: R848 1 µM
Experimental: Mouse spleen from healthy, female C57BL-6/N mice (n=2) were taken out in 50 mL tubes with B-Cell medium and the experiment started directly. The spleen was grinded through a cell strainer by using the punch of a syringe into a 50 mL Falcon tube. Cell strainer and punch were flushed with appropriate amount of washing buffer to avoid cellloss. Then the spleenocytes were centrifuged for 10 min at 552 xg (1600 rpm), 4° C. The erythrocytes within the cell pellet were lysed by resuspending pellet in 1 ml ACK-lysing buffer (4° C.) and incubate for 1 minute at RT. Lysis was stopped by filling up to 50 ml with washing buffer and centrifuged for 10 min at 552 xg (1600 rpm), 4° C. Cells were washed in B-cell Media (IMDM + 25 mM HEPES + 10%FCS + pen/strep + NEAA 10 nM + Sodium Pyrovat 100 nM, β-Mercaptoethanol 50 nM), counted and seeded in a density of 148500 cells per well in a 96 well MTP (135µl of 1,1×106c/ml). The cells were pre-treated with antimalarials (15 µL, in different concentrations according to dose-response curve ranging from 100 pM-50 µM)) for 30 min, at 37° C., 5% CO2, followed by TLR⅞ stimulation with R848 (15 µl, final concentration of 1 µM) or a TLR9 stimulation with CpG (15 µl, final concentration of 5 µM) and incubated at 37° C., 5% CO2 for 18 - 24 hours.
Supernatants were collected and transferred into a 96 well round bottom MTP and stored at -20° C. until ELISA formouse IL6 and mouse TNFa were performed. Plates were read directly after assay on an Envision Multiplate reader. Results were analyzed with GraphPadPrism V8.0. Plot the calculated amount of produced IL6 or TNFa in pg/ml on y-axis and the concentration of each MSC concentration at half logarhythmic scaling on the x-axis to achieve a dose-response curve. Determine IC50 values using Graph Pad Prism analysis software (Transform Y values using “X=Log(X) and log inhibitor vs. response; Variable slope (four parameters).

SMILES: CCN(CCO)CCCC(C)Nc1ccnc2cc(Cl)ccc12 (stereo not drawn) [HYDROXY-CHLOROQUINE HCQ, hydroxychloroquine]
- IC50 TLR⅞ (IL6 readout) mouse spleenocytes (n=2) (IL6 readout): no suppr
- IC50 (IL6 readout, read-out: IC50 TLR⅞ (IL6 readout) mouse spleenocytes (n=2)): 27.1 µM
- IC50 TLR⅞ (TNF readout) mouse spleenocytes (n=2) (TNF readout): no suppr
